Measurements reported in US20230234996A1, “PI3K GAMMA INHIBITOR PEPTIDE FOR TREATMENT OF FIBROPROLIFERATIVE VASCULAR DISEASES” (Kither Biotech S.r.l., priority 2020, published 2023).
Entries after “also recorded” stand apart in the source; their conditions may differ.

Assays:
[1] = test system: intracellular cAMP in primary VSMC; test: cAMP dynamics with FRET-based TEpacVV biosensor; format: cell-based, mouse; settings: for cAMP level regulated by PDE4 (rolipram response): rolipram 1 μM; for cAMP production in response to forskolin: Rmax = forskolin 2.5 μM + IBMX 200 μM; for cAMP level regulated by PDE3 (cilostamide response): cilostamide 1 μM
Method: A. Left panel: Average changes in intracellular cAMP concentration ([cAMP]i) in primary VSMC from WT (top), PI3Kγ KO (middle) and PI3Kγ-KD (bottom) mice and expressing the ^TEpac^VV biosensor. The black line represents the average F480/F535 emission ratio over time in response to 2.5 μM forskolin (fsk) stimulation and fsk (2.5 μM)+IBMX (200 μM) treatment. B. Histograms representing the mean values for forskolin responses. Results are expressed as a percentage of the maximal ratio change (% of Rmax(IBMX response)) determined by the final application of forskolin (2.5 μM)+IBMX (200 μM). Data shown are the means±SEM. (n=5 mice). Data are presented as mean±SEM and were compared using a Kruskal-Wallis test. C. Homogenous time-resolved fluorescence (HTRF) dosage of intracellular cAMP from WT, PI3Kγ KO or PI3Kγ KD primary VSMC after 30 min treatment with vehicle or 0.5 μM Forskolin.
A. Average changes in [cAMP]i in primary VSMC from WT (top), PI3Kγ KO (middle) and PI3Kγ-KD (bottom) mice and expressing the ^TEpac^VV biosensor. The trace indicates the average F480/F535 emission ratio over time in response to 2.5 μM forskolin, cilostamide (1 μM), rolipram (1 μM) and forskolin (2.5 μM)+IBMX (200 μM) treatment. B. Histograms representing the mean values for rolipram and cilostamide responses. Results are expressed as a percentage of the maximal ratio change (% of Rmax (IBMX response)) determined by the final application of forskolin (2.5 μM)+IBMX (200 μM). Data are presented as mean±SEM (n>22 with 4 different mice) and were compared using a Kruskal-Wallis test. C. Phosphodiesterase activity detected in PDE4D immunoprecipitates from primary VSMC. Data shown are the means±SEM and compared using one-way ANOVA followed by Bonferroni post-hoc test (n=3). D. Representative Western blot of PDE4D immunoprecipitates.
Measurement of cAMP dynamics: Primary SMC were seeded on coverslips and infected with the ^TEpac^VV-encoding type-5 adenovirus (˜100 particles per SMC) as described elsewhere. Coverslips were placed in a microscope chamber continually perfused (2 mL·min^−1) with BBS buffer (125 mM NaCl, 2 mM CaCl2), 1 mM MgCl2, 1.25 mM NaH2PO4, 26 mM NaHCO3, 25 mM glucose) saturated with 95% 02-5% CO2. Ratiometric analyses were performed as follows: fluorescence was excited with a LED source at 435 nm and fluorescence emission was monitored with a dichroic mirror (T450LPXR) and alternating emission filters for the donor (HQ480/40) and acceptor (D535/40). Pairs of images were recorded with an Orca-ER CCD camera (Hamamatsu Photonics, Japan), at 20-s intervals. Changes in [cAMP]i are expressed as the ratio of donor fluorescence (F480) to acceptor fluorescence (F535). The ratios were multiplied by a same constant for all experiments, such that the baseline ratio was 1 in basal conditions. The maximum ratio change (Rmax) was obtained by stimulating cells with 2.5 μM forskolin and […] IBMX (15879, Sigma Aldrich). Filters and mirrors were obtained from AHF analysentechnik AG, Tübingen, Germany.

[2] = test system: C5a-mediated Akt phosphorylation (Ser-473), relying on the catalytic activity of PI3Kγ, RAW264 macrophages; test: C5a-mediated Akt phosphorylation in macrophages (Western blot); format: cell-based; settings: then C5a 5 min
Method: A. Schematic representation of the cell-permeable PI3Kγ competing peptide. The 126-150 region of PI3Kγ was fused to the cell-penetrating peptide Penetratin 1 (P1). A control peptide was generated by insertion of two point mutations (K>A and R>A at position 1 and 5 of the PI3Kγ sequence, respectively). B. RAW macrophages were pre-treated with vehicle, the PI3Kγ peptide (10 μM) or the PI3Kγ kinase inhibitor AS605240 (1 μM) for 1 hour and then with C5a (50 μM) for 5 minutes. Representative Western blot images of phospho-AKT (Ser-473) and total AKT (left) and ratio quantification (right) are shown. GAPDH was used as loading control. n=3. C. Incorporation by primary VSMC of a FITC-labelled PI3Kγ peptide at 1 h, 5 h, 24 h and 30 h after incubation. D. Quantification of FITC-associated fluorescence intensity inside VSMC area. C5a-mediated Akt phosphorylation in macrophages: After 3 h starvation in serum-free medium, RAW264 macrophages were pre-treated with the PI3Kγ competing peptide (25 μM) or the PI3Kγ inhibitor AS-605240 (1 μM; MedChemExpress) or DMSO for 30 min and stimulated for 5 min with 50 nM of C5a (Sigma Aldrich). Akt phosphorylation at Ser-473 was detected by Western blot using a Ser473 Akt-specific antibody (Cell Signaling Technology).

[3] = test system: PKA; settings: reference [19]; cited from earlier work
[4] = test system: primary VSMC; test: Mouse SMC proliferation by BrdU incorporation; format: cell-based; settings: for cell proliferation (BrdU incorporation): 25 μM peptide 24 h, PDGF 25 ng/ml with or without forskolin 25 μM, vs control peptide
Method: A. Representatives cross sections of injured femoral arteries stained with Masson Trichrome from the indicated hematopoietic chimeras. Scale bars=100 μM. Irradiated WT, PI3Kγ KD (KD) and PI3Kγ KO recipient mice were transplanted with bone marrow from the indicated donors to obtain the indicated chimeras. Irradiated WT mice were transplanted with bone marrow from WT, PI3Kγ KD or PI3Kγ KO to obtain the following hematopoietic chimeras: WT>WT, KD>WT and KO>WT. Irradiated KD recipient mice were transplanted with bone marrow from WT or PI3Kγ KD donor mice (WT>KD; KD>KD). Irradiated KO recipient mice were transplanted with bone marrow from WT or KO donors (WT>KO and KO>KO). B. Quantitative analysis of intima/media ratios of indicated hematopoietic chimeras. Histogram represents the neointima/media ratio for each chimera (n>6 mice for each group). Data are presented as mean±SEM and were compared using a one-way ANOVA test. C. Schematic representation of the experimental model used to investigate PI3Kγ implication in the control of SMC proliferation. D. Western blot of PI3Kγ expression in each genotype. […] (5<n<12 cultures for each genotype). Data are presented as mean±SEM and were compared using a one-way ANOVA test.
A, B, C. […] BrdU was added during the last 18 h (n=8 cultures for each genotype). Data are presented as mean±SEM and were compared using a one-way ANOVA test. D. Schematic model of PI3Kγ implication in VSMC proliferation. VSMC proliferation is induced by PDGF stimulation. […] This PI3Kγ recruitment could also concentrate phosphodiesterases (PDE) that counterbalance cAMP production by adenylate cyclase (AC) induced by other signals. By these mechanisms, PI3Kγ acts as an amplifier of VSMC synthetic transition.
Measure of mouse SMC proliferation: Primary mouse SMCs were sub-cultured onto 48-well cell culture plates in complete medium. Cells were treated or not with PDGF (520-BB-050, R&D Systems) and forskolin (F3917, Sigma Aldrich) for 24 h. For blocking peptide experiments, cells were incubated 24 h with 25 μM of control ([…]—SEQ ID No.: 13) or blocking peptide ([…]—SEQ ID No.: 14). Peptides were synthesized by GenScript (GenScript, Piscataway, N.J.). BrdU (00-0103, Invitrogen) incorporation assays were performed by classical immunofluorescence procedure using anti-BrdU antibody (11-5071, eBioscience) and DAPI. Proliferation rate is measured as the ratio of BrdU positive nuclei over total nuclei and expressed as fold increase.

[5] = test system: PDE4D; test: PDE4D function in VSMC; format: cell-based; settings: summary statement
[6] = forskolin-stimulated PI3Kγ-KD VSMC
[7] = forskolin-stimulated PI3Kγ-KO VSMC

COc1ccc(C2CNC(=O)C2)cc1OC1CCCC1 (stereo not drawn) [rolipram]
cAMP level regulated by PDE4 (rolipram response) [1, 6]: 73 % of IBMX response | cAMP level regulated by PDE4 (rolipram response) [1, 7]: 43 % of IBMX response | cAMP level regulated by PDE4 (rolipram response) ([1]; forskolin-stimulated WT VSMC): 67 % of IBMX response

C=C[C@@]1(C)CC(=O)[C@]2(O)[C@@]3(C)[C@@H](O)CCC(C)(C)[C@@H]3[C@H](O)[C@H](OC(C)=O)[C@@]2(C)O1 [forskolin]
cAMP production in response to forskolin ([1]; 2.5 μM forskolin, PI3Kγ-KO primary VSMC): 52.57 % of IBMX response | cAMP production in response to forskolin ([1]; 2.5 μM forskolin, WT primary VSMC): 24.09 % of IBMX response | increase of forskolin cAMP response, PI3Kγ-KO compared to WT ([1]; 2.5 μM forskolin, p=0.03): 2.2 folds

O=C1NC(=O)/C(=C\c2ccc3nccnc3c2)S1 [AS-6052540]
C5a-mediated Akt phosphorylation in macrophages ([2]; RAW macrophages pre-treated with inhibitor 1 μM): significantly reduced

RQIKIWFQNRRMKWKKGAATHASPGQIHLVQRHPPSEESQAF (control peptide)
interaction with PKA [3]: does not interact with PKA

CN(C(=O)CCCOc1ccc2[nH]c(=O)ccc2c1)C1CCCCC1 [cilostamide]
cAMP level regulated by PDE3 (cilostamide response) [1, 6]: 17 % of IBMX response | cAMP level regulated by PDE3 (cilostamide response) [1, 7]: 49 % of IBMX response | cAMP level regulated by PDE3 (cilostamide response) ([1]; forskolin-stimulated WT VSMC): 25 % of IBMX response

RQIKIWFQNRRMKWKKGKATHRSPGQIHLVQRHPPSEESQAF (KIT2014) [PI3Kγ peptide, The 126-150 region of PI3Kγ fused to the cell-penetrating peptide Penetratin 1 (P1)]
cAMP levels in VSMC ([1]; peptide conjugated with Penetratin 1, summary statement): increases their cAMP levels | cell proliferation (BrdU incorporation) ([4]; PI3Kγ-KD primary VSMC): inhibited cell proliferation | cell proliferation (BrdU incorporation) ([4]; PI3Kγ-KO primary VSMC): no difference was observed | VSMC proliferation ([4]; VSMC in vitro, response to PDGF and forskolin, genotype not stated (summary statement)): abolished VSMC proliferation; also recorded: inhibits VSMC proliferation | cell proliferation (BrdU incorporation) ([4]; WT primary VSMC): inhibited cell proliferation | C5a-mediated Akt phosphorylation in macrophages ([2]; RAW macrophages pre-treated with PI3Kγ peptide (25 μM b74; 10 μM b24)): unaltered | PDE4D function [5]: specifically blunted PDE4D function
